The target of the experiment is T1, human PDE2A3 enzyme (Homo sapiens, UniProt O00408).
T1 construct: Human PDE2A3 full-length gene was transduced into Sf9; His-tag; made in house; host or cells: Sf9 insect cells
T1 sequence (O00408 whole entry): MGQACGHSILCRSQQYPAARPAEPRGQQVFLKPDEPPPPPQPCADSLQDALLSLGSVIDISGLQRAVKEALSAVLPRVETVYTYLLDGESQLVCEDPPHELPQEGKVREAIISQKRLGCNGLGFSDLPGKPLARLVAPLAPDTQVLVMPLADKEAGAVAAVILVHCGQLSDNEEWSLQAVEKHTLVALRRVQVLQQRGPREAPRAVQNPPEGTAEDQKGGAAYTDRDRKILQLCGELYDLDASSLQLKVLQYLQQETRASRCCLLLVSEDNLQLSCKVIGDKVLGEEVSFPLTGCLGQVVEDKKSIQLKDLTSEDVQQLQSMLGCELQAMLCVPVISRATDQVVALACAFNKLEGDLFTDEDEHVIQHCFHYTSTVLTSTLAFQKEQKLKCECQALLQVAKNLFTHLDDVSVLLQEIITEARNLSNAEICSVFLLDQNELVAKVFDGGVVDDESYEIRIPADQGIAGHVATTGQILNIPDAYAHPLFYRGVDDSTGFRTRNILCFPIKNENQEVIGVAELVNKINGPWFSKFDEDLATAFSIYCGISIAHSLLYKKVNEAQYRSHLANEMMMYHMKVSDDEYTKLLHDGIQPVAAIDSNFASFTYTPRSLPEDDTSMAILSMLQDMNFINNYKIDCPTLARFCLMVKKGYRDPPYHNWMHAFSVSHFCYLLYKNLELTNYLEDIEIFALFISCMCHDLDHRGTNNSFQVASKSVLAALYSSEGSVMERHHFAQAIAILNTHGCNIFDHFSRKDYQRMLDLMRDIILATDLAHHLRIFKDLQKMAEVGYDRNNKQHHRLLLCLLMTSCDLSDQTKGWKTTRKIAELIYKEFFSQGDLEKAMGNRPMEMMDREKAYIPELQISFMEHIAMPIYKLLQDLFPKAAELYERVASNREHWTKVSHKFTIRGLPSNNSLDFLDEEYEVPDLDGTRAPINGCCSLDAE
The experiment can be described thus: PDE enzyme inhibitory assay (SPA, [3H]cGMP substrate). In kind it is biochemical. The following applies: compound 1 μM, substrate [3H]cGMP 77 nM, read-out: inhibitory rate (%) (1 μM). The method, then:
PDE Enzyme Inhibitory Assay
Human PDE2A3 full-length gene was transduced into Sf9, and human PDE2A3 enzyme was purified by His-tag affinity column and gel filtration. The enzyme was stored at −70° C. until use. PDE activity was measured by using a SPA (Scintillation Proximity Assay) (GE Healthcare). To evaluate the inhibitory activity of the compound, 10 μl of serial diluted compounds were reacted with 20 μl of PDE enzyme in assay buffer (50 mM HEPES-NaOH, 8.3 mM MgCl2, 1.7 mM EGTA, 0.1% BSA (pH 7.4)) for 30 min at room temperature. Final concentration of DMSO in the reaction solution was 1%. Compounds were tested in duplicate in 96-well half-area plates (Corning) or 384-well OptiPlate (PerkinElmer). To start the reaction, 10 μl of substrate [^3H]cGMP (final concentration 77 nM, PerkinElmer) was added to a total volume of 40 μl. After reaction for 60 min at room temperature, 20 μl of 20 mg/mL yttrium SPA beads containing zinc sulfate was added to terminate the reaction. After being settled for further 1 hour, the assay plates were counted in a scintillation counter (PerkinElmer) to allow calculation of inhibition rate. Inhibition rate was calculated on the basis of 0% control wells with enzyme and DMSO, and 100% control wells without enzyme.
Take `COC[C@@H](NC(=O)c1cc(=O)[nH]c(-c2ccco2)n1)c1ccc(OC(F)(F)F)c(F)c1` [Example 121, N-((1S)-1-(3-fluoro-4-(trifluoromethoxy)phenyl)-2-methoxyethyl)-2-(2-furyl)-6-oxo-1,6-dihydropyrimidine-4-carboxamide]: the inhibition at 1 µM amounted to 95%.

With `COC[C@@H](NC(=O)c1cc(=O)[nH]c(-c2ccoc2)n1)c1ccc(OC(F)(F)F)c(F)c1` [Example 122, N-((1S)-1-(3-fluoro-4-(trifluoromethoxy)phenyl)-2-methoxyethyl)-2-(3-furyl)-6-oxo-1,6-dihydropyrimidine-4-carboxamide], the inhibition at 1 µM came out at 102%.

Consider `COCC(NC(=O)c1cc(=O)[nH]c(C2=CCCC2)n1)c1ccc(-n2cccn2)c(F)c1` (stereo not drawn) [Example 129, 2-(cyclopent-1-en-1-yl)-N-(1-(3-fluoro-4-(1H-pyrazol-1-yl)phenyl)-2-methoxyethyl)-6-oxo-1,6-dihydropyrimidine-4-carboxamide], for which the inhibition at 1 µM is 98%.

On to `COC[C@@H](NC(=O)c1cc(=O)[nH]c(-c2ncc(OC)cc2OC)n1)c1ccc(OC(F)(F)F)c(F)c1` [Example 152, 2-(3,5-dimethoxypyridin-2-yl)-N-((1S)-1-(3-fluoro-4-(trifluoromethoxy)phenyl)-2-methoxyethyl)-6-oxo-1,6-dihydropyrimidine-4-carboxamide], for which the inhibition at 1 µM was 96%.

On to `COC[C@@H](NC(=O)c1cc(=O)[nH]c(C2(C)CC2)n1)c1ccc(OC(F)(F)F)cc1` [Example 153, N-((1S)-2-methoxy-1-(4-(trifluoromethoxy)phenyl)ethyl)-2-(1-methylcyclopropyl)-6-oxo-1,6-dihydropyrimidine-4-carboxamide], for which the inhibition at 1 µM stood at 100%.

In the case of `Cn1cc(-c2cncc(C(=O)N[C@@H](c3ccc(OC(F)(F)F)c(F)c3)C(C)(C)O)n2)cn1` [Example 158, N-((1S)-1-(3-fluoro-4-(trifluoromethoxy)phenyl)-2-hydroxy-2-methylpropyl)-6-(1-methyl-1H-pyrazol-4-yl)pyrazine-2-carboxamide], the inhibition at 1 µM turned out to be 97%.

Consider `CO[C@H]1CCN(c2cncc(C(=O)N[C@@H](c3ccc(OC(F)(F)F)c(F)c3)C(C)(C)O)n2)C1` [Example 163, N-((1S)-1-(3-fluoro-4-(trifluoromethoxy)phenyl)-2-hydroxy-2-methylpropyl)-6-((3S)-3-methoxypyrrolidin-1-yl)pyrazine-2-carboxamide], for which the inhibition at 1 µM came to 94%.

`COC[C@@H](NC(=O)c1cc(=O)[nH]c(C2=CCC(OC)C2)n1)c1ccc(OC(F)(F)F)c(F)c1` (stereo partly drawn) [Example 171, N-((1S)-1-(3-fluoro-4-(trifluoromethoxy)phenyl)-2-methoxyethyl)-2-(4-methoxycyclopent-1-en-1-yl)-6-oxo-1,6-dihydropyrimidine-4-carboxamide]: the inhibition at 1 µM amounted to 103%.

Turning to `COC[C@@H](NC(=O)c1cc(=O)[nH]c(-c2ncc(OC)cc2F)n1)c1ccc(OC(F)(F)F)c(F)c1` [Example 178, 2-(3-fluoro-5-methoxypyridin-2-yl)-N-((1S)-1-(3-fluoro-4-(trifluoromethoxy)phenyl)-2-methoxyethyl)-6-oxo-1,6-dihydropyrimidine-4-carboxamide], the inhibition at 1 µM was 99%.

Take `COC[C@@H](NC(=O)c1cc(=O)[nH]c(-c2ncc(OC)cc2C)n1)c1ccc(OC(F)(F)F)c(F)c1` [Example 179, N-((1S)-1-(3-fluoro-4-(trifluoromethoxy)phenyl)-2-methoxyethyl)-2-(5-methoxy-3-methylpyridin-2-yl)-6-oxo-1,6-dihydropyrimidine-4-carboxamide]: the inhibition at 1 µM was 94%.

For the compound `COC[C@@H](NC(=O)c1cc(=O)[nH]c(-c2ncc(OC)cc2Cl)n1)c1ccc(OC(F)(F)F)c(F)c1` [Example 184, 2-(3-chloro-5-methoxypyridin-2-yl)-N-((1S)-1-(3-fluoro-4-(trifluoromethoxy)phenyl)-2-methoxyethyl)-6-oxo-1,6-dihydropyrimidine-4-carboxamide], the inhibition at 1 µM was found to be 95%.

For `COC[C@@H](NC(=O)c1cc(=O)[nH]c(-c2ncc(C3CC3)cc2F)n1)c1ccc(OC(F)(F)F)c(F)c1` [Example 185, 2-(5-cyclopropyl-3-fluoropyridin-2-yl)-N-((1S)-1-(3-fluoro-4-(trifluoro-methoxy)phenyl)-2-methoxyethyl)-6-oxo-1,6-dihydropyrimidine-4-carboxamide], the inhibition at 1 µM was determined as 94%.

Regarding `COC[C@@H](NC(=O)c1cc(=O)[nH]c(-c2ncc(OC(F)F)cc2F)n1)c1ccc(OC(F)(F)F)c(F)c1` [Example 186, 2-(5-(difluoromethoxy)-3-fluoropyridin-2-yl)-N-((1S)-1-(3-fluoro-4-(trifluoro-methoxy)phenyl)-2-methoxyethyl)-6-oxo-1,6-dihydropyrimidine-4-carboxamide], the inhibition at 1 µM is 92%.

On to `CCOc1cnc(-c2nc(C(=O)N[C@H](COC)c3ccc(OC(F)(F)F)c(F)c3)cc(=O)[nH]2)c(OCC)c1` [Example 187, 2-(3,5-diethoxypyridin-2-yl)-N-((1S)-1-(3-fluoro-4-(trifluoromethoxy)phenyl)-2-methoxyethyl)-6-oxo-1,6-dihydropyrimidine-4-carboxamide], for which the inhibition at 1 µM was 105%.

For `COC[C@@H](NC(=O)c1cc(=O)[nH]c(-c2ncc(C3CC3)cc2OC)n1)c1ccc(OC(F)(F)F)c(F)c1` [Example 189, 2-(5-cyclopropyl-3-methoxypyridin-2-yl)-N-((1S)-1-(3-fluoro-4-(trifluoro-methoxy)phenyl)-2-methoxyethyl)-6-oxo-1,6-dihydropyrimidine-4-carboxamide], the inhibition at 1 µM was determined as 99%.

The values are drawn from patent US20160264536A1, “HETEROCYCLIC COMPOUND” (Takeda Pharmaceutical Company Limited, priority 2013, published 2016).
